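Dose response: 5 concentrations. Exposure: 48 h. Format: 96-well plates. Endpoint: linear interpolation; highest concentration if not reached. GI50 is the concentration that inhibits growth by half.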 The source made the active and inactive calls. Rule as the data show it: active = GI50 up to about 1.1 µM and inactive = higher.
Assays:
Experiment in all cases: NCI tumour cell line growth inhibition, 48 h
U-251 = test system: U-251
A549 = test system: A549
IGROV-1 = test system: IGROV-1
KM12 = test system: KM12
SNB-19 = test system: SNB-19
HOP-18 = test system: HOP-18
786-0 = test system: 786-0
UO-31 = test system: UO-31
KM-20L2 = test system: KM-20L2
XF498 = test system: XF498
MOLT-4 = test system: MOLT-4
SN12C = test system: SN12C
UACC-62 = test system: UACC-62
HCT-116 = test system: HCT-116
K562 = test system: K562
CCRF-CEM = test system: CCRF-CEM
SNB-78 = test system: SNB-78
RPMI-8226 = test system: RPMI-8226
SK-MEL-2 = test system: SK-MEL-2
TK-10 = test system: TK-10
DMS-273 = test system: DMS-273
HL-60 = test system: HL-60
HCT-15 = test system: HCT-15
DMS-114 = test system: DMS-114
LXFL 529 = test system: LXFL 529
NCI-H460 = test system: NCI-H460
DLD-1 = test system: DLD-1
EKVX = test system: EKVX
OVCAR-5 = test system: OVCAR-5
SNB-75 = test system: SNB-75
NCI-H226 = test system: NCI-H226
A498 = test system: A498
RXF 393 = test system: RXF 393
HOP-92 = test system: HOP-92
LOX IMVI = test system: LOX IMVI
CAKI-1 = test system: CAKI-1
SR = test system: SR
HT-29 = test system: HT-29
SW-620 = test system: SW-620
SK-OV-3 = test system: SK-OV-3
HOP-62 = test system: HOP-62
SK-MEL-5 = test system: SK-MEL-5
OVCAR-8 = test system: OVCAR-8
OVCAR-3 = test system: OVCAR-3
OVCAR-4 = test system: OVCAR-4
SF-295 = test system: SF-295
SF-268 = test system: SF-268
Malme-3M = test system: Malme-3M
SF-539 = test system: SF-539
M14 = test system: M14
M19-MEL = test system: M19-MEL
NCI-H522 = test system: NCI-H522
NCI-H23 = test system: NCI-H23
UACC-257 = test system: UACC-257
COLO 205 = test system: COLO 205
SK-MEL-28 = test system: SK-MEL-28
HCC 2998 = test system: HCC 2998
ACHN = test system: ACHN

In the case of `O=C1OC2C(O)COC2(O)C1(O)Cc1c[nH]c2ccccc12` (stereo not drawn), the GI50 (U-251) is reported as > 100 µM (inactive), the GI50 (A549) is reported as > 100 µM (inactive) and the GI50 (IGROV-1) is reported as > 100 µM (inactive). The GI50 (KM12) was > 100 µM (inactive), the GI50 (SNB-19) was > 100 µM (inactive) and the GI50 (HOP-18) was > 100 µM (inactive). The GI50 (786-0) was > 100 µM (inactive), the GI50 (UO-31) was > 100 µM (inactive) and the GI50 (KM-20L2) was > 100 µM (inactive). For the same compound, the GI50 (XF498) was > 100 µM (inactive), the GI50 (MOLT-4) was > 100 µM (inactive) and the GI50 (SN12C) was > 100 µM (inactive). For the same compound, the GI50 (UACC-62) was > 100 µM (inactive), the GI50 (HCT-116) was > 100 µM (inactive) and the GI50 (K562) was > 100 µM (inactive). For the same compound, the GI50 (CCRF-CEM) was > 100 µM (inactive), the GI50 (SNB-78) was > 100 µM (inactive) and the GI50 (RPMI-8226) was > 100 µM (inactive). For the same compound, the GI50 (SK-MEL-2) was > 100 µM (inactive), the GI50 (TK-10) was > 100 µM (inactive) and the GI50 (DMS-273) was > 100 µM (inactive). The GI50 (HL-60) was > 100 µM (inactive), the GI50 (HCT-15) was over 100 µM and the GI50 (DMS-114) was > 100 µM (inactive). The GI50 (LXFL 529) was > 100 µM (inactive), the GI50 (NCI-H460) was > 100 µM (inactive) and the GI50 (DLD-1) was > 100 µM (inactive). For the same compound, the GI50 (EKVX) was > 100 µM (inactive), the GI50 (OVCAR-5) was > 100 µM (inactive) and the GI50 (SNB-75) was > 100 µM (inactive). For the same compound, the GI50 (NCI-H226) was > 100 µM (inactive), the GI50 (A498) was > 100 µM (inactive) and the GI50 (RXF 393) was > 100 µM (inactive). For the same compound, the GI50 (HOP-92) was > 100 µM (inactive), the GI50 (LOX IMVI) was > 100 µM (inactive) and the GI50 (CAKI-1) was > 100 µM (inactive). For the same compound, the GI50 (SR) was > 100 µM (inactive), the GI50 (HT-29) was > 100 µM (inactive) and the GI50 (SW-620) was > 100 µM (inactive). The GI50 (SK-OV-3) was > 100 µM (inactive), the GI50 (HOP-62) was > 100 µM (inactive) and the GI50 (SK-MEL-5) was > 100 µM (inactive). For the same compound, the GI50 (OVCAR-8) was > 100 µM (inactive), the GI50 (OVCAR-3) was > 100 µM (inactive) and the GI50 (OVCAR-4) was > 100 µM (inactive). For the same compound, the GI50 (SF-295) was > 100 µM (inactive), the GI50 (SF-268) was > 100 µM (inactive) and the GI50 (Malme-3M) was > 100 µM (inactive). For the same compound, the GI50 (SF-539) was > 100 µM (inactive), the GI50 (M14) was > 100 µM (inactive) and the GI50 (M19-MEL) was > 100 µM (inactive). For the same compound, the GI50 (NCI-H522) was > 100 µM (inactive), the GI50 (NCI-H23) was > 100 µM (inactive) and the GI50 (UACC-257) was > 100 µM (inactive). For the same compound, the GI50 (COLO 205) was > 100 µM (inactive).

With `Cc1ccc(-c2nnc(SCC(=O)O)[nH]2)cc1` the GI50 (U-251) was > 100 µM (inactive), the GI50 (A549) was > 100 µM (inactive) and the GI50 (IGROV-1) was > 100 µM (inactive). For the same compound, the GI50 (KM12) was > 100 µM (inactive), the GI50 (SNB-19) was > 100 µM (inactive) and the GI50 (SK-MEL-28) was > 100 µM (inactive). For the same compound, the GI50 (HOP-18) was > 100 µM (inactive), the GI50 (786-0) was > 100 µM (inactive) and the GI50 (UO-31) was > 100 µM (inactive). For the same compound, the GI50 (KM-20L2) was > 100 µM (inactive), the GI50 (XF498) was > 100 µM (inactive) and the GI50 (HCC 2998) was > 100 µM (inactive). The GI50 (MOLT-4) was > 100 µM (inactive), the GI50 (SN12C) was > 100 µM (inactive) and the GI50 (UACC-62) was > 100 µM (inactive). The GI50 (HCT-116) was > 100 µM (inactive), the GI50 (K562) was > 100 µM (inactive) and the GI50 (CCRF-CEM) was > 100 µM (inactive). The GI50 (ACHN) was > 100 µM (inactive), the GI50 (SNB-78) was > 100 µM (inactive) and the GI50 (RPMI-8226) was > 100 µM (inactive). For the same compound, the GI50 (SK-MEL-2) was > 100 µM (inactive), the GI50 (TK-10) was > 100 µM (inactive) and the GI50 (DMS-273) was > 100 µM (inactive). The GI50 (HL-60) was > 100 µM (inactive), the GI50 (HCT-15) was over 100 µM and the GI50 (DMS-114) was > 100 µM (inactive). The GI50 (LXFL 529) was > 100 µM (inactive), the GI50 (NCI-H460) was > 100 µM (inactive) and the GI50 (DLD-1) was > 100 µM (inactive). The GI50 (EKVX) was > 100 µM (inactive), the GI50 (OVCAR-5) was > 100 µM (inactive) and the GI50 (SNB-75) was 78.5 µM (inactive). The GI50 (NCI-H226) was > 100 µM (inactive), the GI50 (A498) was > 100 µM (inactive) and the GI50 (HOP-92) was > 100 µM (inactive). For the same compound, the GI50 (CAKI-1) was > 100 µM (inactive), the GI50 (SR) was > 100 µM (inactive) and the GI50 (HT-29) was > 100 µM (inactive). The GI50 (SW-620) was > 100 µM (inactive), the GI50 (SK-OV-3) was > 100 µM (inactive) and the GI50 (HOP-62) was > 100 µM (inactive). The GI50 (SK-MEL-5) was > 100 µM (inactive), the GI50 (OVCAR-8) was > 100 µM (inactive) and the GI50 (OVCAR-3) was > 100 µM (inactive). The GI50 (OVCAR-4) was > 100 µM (inactive), the GI50 (SF-295) was > 100 µM (inactive) and the GI50 (SF-268) was > 100 µM (inactive). The GI50 (Malme-3M) was > 100 µM (inactive), the GI50 (SF-539) was > 100 µM (inactive) and the GI50 (M14) was > 100 µM (inactive). The GI50 (M19-MEL) was > 100 µM (inactive), the GI50 (NCI-H522) was > 100 µM (inactive) and the GI50 (NCI-H23) was > 100 µM (inactive). For the same compound, the GI50 (UACC-257) was > 100 µM (inactive) and the GI50 (COLO 205) was > 100 µM (inactive).

`CCCCCCCCC(=O)NCCCNCCCNC(=O)CCCCCCCC` was tested, and the GI50 (U-251) was 3.25 µM (inactive), the GI50 (A549) was 14.3 µM (inactive) and the GI50 (IGROV-1) was 4.35 µM (inactive). The GI50 (KM12) was 2.01 µM (inactive), the GI50 (SNB-19) was 19.1 µM (inactive) and the GI50 (SK-MEL-28) was 12.3 µM (inactive). The GI50 (HOP-18) was 11.9 µM (inactive), the GI50 (786-0) was 1.86 µM (inactive) and the GI50 (UO-31) was 13.2 µM (inactive). The GI50 (KM-20L2) was 2.53 µM (inactive), the GI50 (XF498) was 3.18 µM (inactive) and the GI50 (HCC 2998) was 2.84 µM (inactive). For the same compound, the GI50 (MOLT-4) was 3.4 µM (inactive), the GI50 (SN12C) was 6.19 µM (inactive) and the GI50 (UACC-62) was 5.79 µM (inactive). The GI50 (HCT-116) was 5.04 µM (inactive), the GI50 (K562) was 2.18 µM (inactive) and the GI50 (CCRF-CEM) was 3.28 µM (inactive). For the same compound, the GI50 (ACHN) was 5.75 µM (inactive), the GI50 (SNB-78) was 10.9 µM (inactive) and the GI50 (RPMI-8226) was 3.23 µM (inactive). For the same compound, the GI50 (SK-MEL-2) was 3.25 µM (inactive), the GI50 (TK-10) was 15.1 µM (inactive) and the GI50 (DMS-273) was 2.56 µM (inactive). The GI50 (HL-60) was 2.11 µM (inactive), the GI50 (HCT-15) was 14.7 µM and the GI50 (DMS-114) was 3.78 µM (inactive). For the same compound, the GI50 (LXFL 529) was 3.35 µM (inactive), the GI50 (NCI-H460) was 2.54 µM (inactive) and the GI50 (DLD-1) was 2.93 µM (inactive). The GI50 (EKVX) was 14.9 µM (inactive), the GI50 (OVCAR-5) was 15.2 µM (inactive) and the GI50 (NCI-H226) was 17.9 µM (inactive). The GI50 (A498) was 16.9 µM (inactive), the GI50 (RXF 393) was 8.89 µM (inactive) and the GI50 (HOP-92) was 3.85 µM (inactive). For the same compound, the GI50 (LOX IMVI) was 1.77 µM (inactive), the GI50 (CAKI-1) was 13 µM (inactive) and the GI50 (SR) was 2.62 µM (inactive). For the same compound, the GI50 (HT-29) was 2.92 µM (inactive), the GI50 (SW-620) was 2.54 µM (inactive) and the GI50 (SK-OV-3) was 14.3 µM (inactive). For the same compound, the GI50 (HOP-62) was 13.8 µM (inactive), the GI50 (SK-MEL-5) was 3.82 µM (inactive) and the GI50 (OVCAR-8) was 14.9 µM (inactive). The GI50 (OVCAR-3) was 15.5 µM (inactive), the GI50 (OVCAR-4) was 14.7 µM (inactive) and the GI50 (SF-295) was 5.65 µM (inactive). For the same compound, the GI50 (SF-268) was 10.2 µM (inactive), the GI50 (Malme-3M) was 12.6 µM (inactive) and the GI50 (SF-539) was 15.7 µM (inactive). For the same compound, the GI50 (M14) was 2.07 µM (inactive), the GI50 (M19-MEL) was 3.93 µM (inactive) and the GI50 (NCI-H522) was 5.05 µM (inactive). The GI50 (NCI-H23) was 15.7 µM (inactive), the GI50 (UACC-257) was 7.1 µM (inactive) and the GI50 (COLO 205) was 4.88 µM (inactive).

Reference: ChEMBL document CHEMBL1201862, “PubChem BioAssay data set” (2004)
